Laboratory results from the supplement of paper PMC10307832.

Legend:
Assay in all cases: relative viability (nuclei count vs DMSO), 5 days (fraction); higher = more cells survive
Motesanib + Alpelisib = compound: CC1(C)CNc2cc(NC(=O)c3cccnc3NCc3ccncc3)ccc21 [Motesanib] + Cc1nc(NC(=O)N2CCC[C@H]2C(N)=O)sc1-c1ccnc(C(C)(C)C(F)(F)F)c1 [Alpelisib] (partner 2 µM)
Method in brief: (§1)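 Cells from lung cancer lines were seeded into 1536-well plates and, one day later, dosed by pin tool. Treatments were either a single drug or a fixed dose of an anchor drug with five library-drug doses (not always all listed) in √10 steps. After 5 days, nuclei were stained in a one-step fixation (final 0.05% Triton X-100, 1% formaldehyde, 1 ug/ml Hoechst) and counted on 4× images, and relative viability is the treated-to-vehicle nuclei ratio, as the median of duplicate plates.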

Motesanib + Olaparib = compound: CC1(C)CNc2cc(NC(=O)c3cccnc3NCc3ccncc3)ccc21 [Motesanib] + O=C(c1cc(Cc2n[nH]c(=O)c3ccccc23)ccc1F)N1CCN(C(=O)C2CC2)CC1 [Olaparib] (partner 8 µM)
Method in brief: as §1

[1] = compound: C[C@@]1(C(=O)Nc2ccc(F)nc2)CCCN1c1nc(Nc2cc(C3CC3)n[nH]2)c2cccn2n1 + CC(C)C[C@H](NC(=O)[C@H](Cc1ccccc1)NC(=O)c1cnccn1)B(O)O [Bortezomib] (partner 0.002 µM)
Method in brief: as §1

[2] = compound: C[C@@]1(C(=O)Nc2ccc(F)nc2)CCCN1c1nc(Nc2cc(C3CC3)n[nH]2)c2cccn2n1 + C[C@]1(O)C[C@@H](c2nc(-c3ccc4ccc(-c5ccccc5)nc4c3)c3c(N)nccn32)C1 [Linsitinib] (partner 1 µM)
Method in brief: as §1

Row | Cell Line | relative viability (Motesanib + Alpelisib; first compound 0.01 µM) | relative viability (Motesanib + Alpelisib; first compound 0.03162 µM) | relative viability (Motesanib + Alpelisib; first compound 0.1 µM) | relative viability (Motesanib + Alpelisib; first compound 0.3162 µM) | relative viability (Motesanib + Alpelisib; first compound 1 µM) | relative viability (Motesanib + Olaparib; first compound 0.01 µM) | relative viability (Motesanib + Olaparib; first compound 0.03162 µM) | relative viability (Motesanib + Olaparib; first compound 0.1 µM) | relative viability (Motesanib + Olaparib; first compound 0.3162 µM) | relative viability (Motesanib + Olaparib; first compound 1 µM) | relative viability ([1]; first compound 0.04 µM) | relative viability ([1]; first compound 0.1265 µM) | relative viability ([1]; first compound 0.4 µM) | relative viability ([1]; first compound 1.265 µM) | relative viability ([2]; first compound 0.04 µM) | relative viability ([2]; first compound 0.1265 µM) | relative viability ([2]; first compound 0.4 µM) | relative viability ([2]; first compound 1.265 µM)
1 | HCC-44 | 0.771 | 0.774 | 0.862 | 0.785 | 0.827 | 0.944 | 0.926 | 1.07 | 1.09 | 0.95 | 0.862 | 0.81 | 0.648 | 0.685 | 0.777 | 0.622 | 0.605 | 0.945
2 | HCC-827 | 0.99 | 1.01 | 1.03 | 1.03 | 1.03 | 0.616 | 0.746 | 0.652 | 0.713 | 0.548 | 1.07 | 1.03 | 0.971 | 0.926 | 0.94 | 0.973 | 0.945 | 0.961
3 | NCI-H2347 | 1.02 | 1 | 1.14 | 1.09 | 1.18 | 0.536 | 0.507 | 0.559 | 0.537 | 0.596 | 1.05 | 0.654 | 0.916 | 0.765 | 0.988 | 0.736 | 0.915 | 0.893
4 | PC-14 | 0.958 | 1.03 | 0.998 | 0.931 | 0.958 | 0.224 | 0.32 | 0.322 | 0.258 | 0.204 | 0.846 | 0.715 | 0.674 | 0.799 | 1.09 | 0.814 | 0.825 | 1.01
5 | NCI-H1651 | 0.987 | 0.909 | 0.823 | 0.883 | 1.06 | 0.176 | 0.192 | 0.213 | 0.202 | 0.201 | 0.956 | 0.871 | 0.864 | 0.825 | 1.04 | 0.898 | 0.984 | 1.12
6 | HARA | 0.808 | 0.852 | 0.815 | 0.943 | 0.831 | 0.761 | 0.937 | 1.06 | 0.902 | 1.05 | 1.11 | 1.12 | 0.684 | 1.05 | 0.947 | 0.939 | 0.88 | 1.12
7 | NCI-H1650 |  |  |  |  |  | 0.746 | 0.875 | 0.914 | 0.632 | 0.843 | 0.185 | 0.248 | 0.185 | 0.174 |  |  |  | 
8 | NCI-H1395 | 1.04 | 0.922 | 0.992 | 0.998 | 1.02 | 0.442 | 0.496 | 0.455 | 0.493 | 0.468 |  |  |  |  | 1.3 | 0.737 | 1.01 | 0.947
9 | LU99A | 0.465 | 0.555 | 0.511 | 0.488 | 0.559 | 0.284 | 0.268 | 0.271 | 0.255 | 0.263 | 0.984 | 0.837 | 0.623 | 0.445 | 0.544 | 0.497 | 0.499 | 0.467
10 | NCI-H1355 | 0.825 | 0.831 | 0.937 | 0.933 | 0.828 | 0.726 | 0.771 | 0.773 | 0.747 | 0.707 | 1.15 | 1.04 | 0.948 | 0.969 | 0.815 | 0.882 | 0.727 | 0.887
